Experimental data reported in ChEMBL document CHEMBL3351956, “Design and synthesis of novel 1,2,3-triazole-pyrimidine hybrids as potential anticancer agents” (Eur J Med Chem, 2014).

Tests used:
Type in all cases: functional, cell-based
[1] = Cytotoxicity against human EC109 cells assessed as inhibition of proliferation after 72 hrs by MTT assay; settings: ECa-109, 72 h
MGC-803 = test: Cytotoxicity against human MGC803 cells assessed as inhibition of proliferation after 72 hrs by MTT assay; settings: MGC-803, 72 h
MCF7 = test: Cytotoxicity against human MCF7 cells assessed as inhibition of proliferation after 72 hrs by MTT assay; settings: MCF7, 72 h
[2] = Cytotoxicity against mouse B16F10 cells assessed as inhibition of proliferation after 72 hrs by MTT assay; settings: B16-F10, 72 h

Row | Compound | IC50 [1] | IC50 (MGC-803) | IC50 (MCF7) | IC50 [2]
1 | COc1ccc(Nc2nc(SCc3cn(Cc4ccccc4Cl)nn3)nc(-c3ccc(C(C)C)cc3)c2C#N)cc1 | 3.58 µM | > 64 µM | 10.2 µM | 2.69 µM
2 | O=c1[nH]cc(F)c(=O)[nH]1 [FLUOROURACIL] | 10.8 µM | 7.69 µM | 8.93 µM | 0.87 µM
